Experimental data published in patent publication US20070191333A1, “Antibacterial agents” (Warner Lambert Company LLC, priority 2003, published 2007).
≈ marks a conversion by molar mass, not a printed value. Where two headings read alike, the source gives them in different places.

Tests used:
Assay type in all cases: cell-based
H. influenzae HI-3542 = assay: Antibacterial microtitration MIC, H. influenzae HI-3542; conditions: strain HI-3542; for MIC: Haemophilus influenzae, HI3542, Gram Negative Bacteria, read-out: Minimum Inhibitory Concentrations H. influenzae HI-3542
Method: (§1) Test A—Antibacterial Assays The compounds of the present invention were tested against an assortment of Gram-negative and Gram-positive organisms using standard microtitration techniques (Cohen et. al., Antimicrob., 1985; 28:766; Heifetz, et. al., Antimicrob., 1974; 6:124).

M. catarrhalis BC-3531 = assay: Antibacterial microtitration MIC, M. catarrhalis BC-3531; conditions: strain BC-3531; for MIC: Moraxella catarrhalis, BC3531, Gram Negative Bacteria, read-out: Minimum Inhibitory Concentrations M. catarrhalis BC-3531
Method: as §1

E. coli 2026 = assay: Antibacterial microtitration MIC, E. coli 2026; conditions: strain 2026; for MIC: read-out: Minimum Inhibitory Concentrations E. coli 2026
Method: as §1

S pyogenes C203 = assay: Antibacterial microtitration MIC, S pyogenes C203; conditions: Gram Positive Bacteria, strain C203; for MIC: read-out: Minimum Inhibitory Concentrations S pyogenes C203
Method: as §1

S. aureus UC-76 = assay: Antibacterial microtitration MIC, S. aureus UC-76; conditions: strain UC-76; for MIC: Staphylococcus aureus, UC76, Gram Positive Bacteria, read-out: Minimum Inhibitory Concentrations S. aureus UC-76
Method: as §1

S. pneumo SV-1 = assay: Antibacterial microtitration MIC, S. pneumo SV-1; conditions: Gram Positive Bacteria, strain SV-1; for MIC: read-out: Minimum Inhibitory Concentrations S. pneumo SV-1
Method: as §1

E. faecalis MGH-2 = assay: Antibacterial microtitration MIC, E. faecalis MGH-2; conditions: strain MGH-2; for MIC: Enterococcus faecalis, MGH2, Gram Positive Bacteria, read-out: Minimum Inhibitory Concentrations E. faecalis MGH-2
Method: as §1

[1] = Escherichia coli, 2026, Gram Negative Bacteria

SMILES	MIC (H. influenzae HI-3542)	MIC (M. catarrhalis BC-3531)	MIC (S pyogenes C203)	MIC (S. aureus UC-76)	MIC (S. pneumo SV-1)	MIC (E. faecalis MGH-2)	also measured
Cc1c(N2CC[C@H]([C@H](N)CC#N)C2)c(F)cc2c(=O)n(N)c(=O)n(C3CC3)c12 (racemic) [drawing 389]	4 µg/mL (≈ 10.4 µM)	16 µg/mL (≈ 41.4 µM)					MIC (E. coli 2026; [1]): 32 µg/mL (≈ 82.8 µM)
Cc1c(N2C[C@H](CNCCC#N)[C@@H](F)C2)c(F)cc2c(=O)n(N)c(=O)n(C3CC3)c12 (racemic) [drawing 397]	8 µg/mL (≈ 19.1 µM)	16 µg/mL (≈ 38.2 µM)					MIC (E. coli 2026; Escherichia coli, Gram Negative Bacteria): 32 µg/mL (≈ 76.5 µM)
Cc1c(N2CC[C@H]([C@H](N)CC#N)C2)c(F)cc2c(=O)n(N)c(=O)n(C3CC3)c12 (racemic) [drawing 406]			0.5 µg/mL (≈ 1.29 µM)	1 µg/mL (≈ 2.59 µM)	0.5 µg/mL (≈ 1.29 µM)	4 µg/mL (≈ 10.4 µM)	
Cc1c(N2C[C@H](CNCCC#N)[C@@H](F)C2)c(F)cc2c(=O)n(N)c(=O)n(C3CC3)c12 (racemic) [drawing 414]			1 µg/mL (≈ 2.39 µM)	2 µg/mL (≈ 4.78 µM)	1 µg/mL (≈ 2.39 µM)	4 µg/mL (≈ 9.56 µM)	
Cc1c(N2C[C@@H](CNCCC#N)[C@H](C)C2)c(F)cc2c(=O)n(N)c(=O)n(C3CC3)c12 (single isomer, unassigned)			0.06 µg/mL (≈ 0.145 µM)	0.25 µg/mL (≈ 0.603 µM)	0.06 µg/mL (≈ 0.145 µM)	0.5 µg/mL (≈ 1.21 µM)	
Cc1c(N2C[C@H](CNCCC#N)[C@@H](C)C2)c(F)cc2c(=O)n(N)c(=O)n(C3CC3)c12 (single isomer, unassigned)			0.125 µg/mL (≈ 0.302 µM)	0.25 µg/mL (≈ 0.603 µM)	0.125 µg/mL (≈ 0.302 µM)	0.5 µg/mL (≈ 1.21 µM)	
Cc1c(N2CC[C@@H]([C@@H](N)CC#N)C2)c(F)cc2c(=O)n(N)c(=O)n(C3CC3)c12 (single isomer, unassigned) [drawing 390]	1 µg/mL (≈ 2.59 µM)	2 µg/mL (≈ 5.18 µM)					MIC (E. coli 2026; [1]): 8 µg/mL (≈ 20.7 µM)
Cc1c(N2CC[C@@H]([C@@H](N)CC#N)C2)c(F)cc2c(=O)[nH]c(=O)n(C3CC3)c12 (single isomer, unassigned) [drawing 391]	4 µg/mL (≈ 10.8 µM)	4 µg/mL (≈ 10.8 µM)					Minimum Inhibitory Concentrations E. coli 2026 (E. coli 2026; Gram Negative Bacteria): 32 µg/mL
Cc1c(N2CC[C@@H]([C@@H](N)CC#N)C2)c(F)cc2c(=O)[nH]c(=O)n(C3CC3)c12 (single isomer, unassigned) [drawing 392]							Minimum Inhibitory Concentrations H. influenzae HI-3542 (H. influenzae HI-3542; Gram Negative Bacteria): 2 µg/mL; Minimum Inhibitory Concentrations M. catarrhalis BC-3531 (M. catarrhalis BC-3531; Gram Negative Bacteria): 4 µg/mL; Minimum Inhibitory Concentrations E. coli 2026 (E. coli 2026; Gram Negative Bacteria): 8 µg/mL
Cc1c(N2CC[C@@H]([C@H](C)NCCC#N)C2)c(F)cc2c(=O)n(N)c(=O)n(C3CC3)c12 (single isomer, unassigned) [drawing 394]	0.5 µg/mL (≈ 1.21 µM)	1 µg/mL (≈ 2.41 µM)					MIC (E. coli 2026; [1]): 4 µg/mL (≈ 9.65 µM)
COc1c(N2CC[C@@H]([C@H](C)NCCC#N)C2)c(F)cc2c(=O)n(N)c(=O)n(C3CC3)c12 (single isomer, unassigned) [drawing 400]	16 µg/mL (≈ 37.2 µM)	16 µg/mL (≈ 37.2 µM)					MIC (E. coli 2026; [1]): 64 µg/mL (≈ 149 µM)
COc1c(N2CC[C@@H]([C@H](C)NCCC#N)C2)c(F)cc2c(=O)[nH]c(=O)n(C3CC3)c12 (single isomer, unassigned) [drawing 401]	64 µg/mL (≈ 154 µM)	64 µg/mL (≈ 154 µM)					MIC (E. coli 2026; [1]): 64 µg/mL (≈ 154 µM)
Cc1c(N2CC[C@@H]([C@@H](N)CC#N)C2)c(F)cc2c(=O)n(N)c(=O)n(C3CC3)c12 (single isomer, unassigned) [drawing 407]			0.03 µg/mL (≈ 0.0776 µM)	0.125 µg/mL (≈ 0.323 µM)	0.06 µg/mL (≈ 0.155 µM)	0.25 µg/mL (≈ 0.647 µM)	
Cc1c(N2CC[C@@H]([C@@H](N)CC#N)C2)c(F)cc2c(=O)[nH]c(=O)n(C3CC3)c12 (single isomer, unassigned) [drawing 408]			0.125 µg/mL (≈ 0.337 µM)	0.25 µg/mL (≈ 0.673 µM)	0.125 µg/mL (≈ 0.337 µM)	0.5 µg/mL (≈ 1.35 µM)	
Cc1c(N2CC[C@@H]([C@@H](N)CC#N)C2)c(F)cc2c(=O)[nH]c(=O)n(C3CC3)c12 (single isomer, unassigned) [drawing 409]							Minimum Inhibitory Concentrations S pyogenes C203 (S pyogenes C203): 0.25 µg/mL; Minimum Inhibitory Concentrations S. aureus UC-76 (S. aureus UC-76; Gram Positive Bacteria): 0.5 µg/mL; Minimum Inhibitory Concentrations S. pneumo SV-1 (S. pneumo SV-1): 0.125 µg/mL; Minimum Inhibitory Concentrations E. faecalis MGH-2 (E. faecalis MGH-2; Gram Positive Bacteria): 1 µg/mL
Cc1c(N2CC[C@@H]([C@H](C)NCCC#N)C2)c(F)cc2c(=O)n(N)c(=O)n(C3CC3)c12 (single isomer, unassigned) [drawing 411]			0.03 µg/mL (≈ 0.0724 µM)	0.06 µg/mL (≈ 0.145 µM)	0.015 µg/mL (≈ 0.0362 µM)	0.125 µg/mL (≈ 0.302 µM)	
COc1c(N2CC[C@@H]([C@H](C)NCCC#N)C2)c(F)cc2c(=O)n(N)c(=O)n(C3CC3)c12 (single isomer, unassigned) [drawing 417]			0.125 µg/mL (≈ 0.29 µM)	0.25 µg/mL (≈ 0.581 µM)	0.125 µg/mL (≈ 0.29 µM)	1 µg/mL (≈ 2.32 µM)	
